Assay results published in ChEMBL document CHEMBL1201862, “PubChem BioAssay data set” (2004).
Values joined by “and” are separate entries in the source; they are usually repeats but may differ in a detail not shown here. Equal values may be shown once.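 Assay format: 96-well plates, 48-hour exposure. GI50 is the concentration that inhibits growth by half.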 Active and inactive are the calls of the source. No stated cut-off is given here; in the data, active = GI50 up to about 1.1 µM and inactive = higher.

Key:
Experiment in all cases: growth of human tumour cells (NCI), 48 h
HCT-116 = system: HCT-116
A498 = system: A498
NCI-H226 = system: NCI-H226
DMS-114 = system: DMS-114
A549 = system: A549
ACHN = system: ACHN
UO-31 = system: UO-31
HOP-62 = system: HOP-62
KM-20L2 = system: KM-20L2
SNB-78 = system: SNB-78
SF-295 = system: SF-295
SNB-19 = system: SNB-19
RXF 393 = system: RXF 393
SR = system: SR
OVCAR-5 = system: OVCAR-5
UACC-62 = system: UACC-62
DMS-273 = system: DMS-273
HOP-92 = system: HOP-92
NCI-H522 = system: NCI-H522
HL-60 = system: HL-60
CCRF-CEM = system: CCRF-CEM
KM12 = system: KM12
NCI-H23 = system: NCI-H23
NCI-H460 = system: NCI-H460
SK-OV-3 = system: SK-OV-3
OVCAR-8 = system: OVCAR-8
SF-268 = system: SF-268
UACC-257 = system: UACC-257
M19-MEL = system: M19-MEL
SK-MEL-28 = system: SK-MEL-28
EKVX = system: EKVX
IGROV-1 = system: IGROV-1
U-251 = system: U-251
M14 = system: M14
MOLT-4 = system: MOLT-4
HT-29 = system: HT-29
TK-10 = system: TK-10
DLD-1 = system: DLD-1
LXFL 529 = system: LXFL 529
BT-549 = system: BT-549
HOP-18 = system: HOP-18
SK-MEL-5 = system: SK-MEL-5
RPMI-8226 = system: RPMI-8226
SF-539 = system: SF-539
OVCAR-3 = system: OVCAR-3
SNB-75 = system: SNB-75
HCC 2998 = system: HCC 2998
K562 = system: K562
COLO 205 = system: COLO 205
SW-620 = system: SW-620
SN12C = system: SN12C
HCT-15 = system: HCT-15
XF498 = system: XF498
Malme-3M = system: Malme-3M
786-0 = system: 786-0
OVCAR-4 = system: OVCAR-4
SK-MEL-2 = system: SK-MEL-2
LOX IMVI = system: LOX IMVI
CAKI-1 = system: CAKI-1

NC(CCCC(N)P(=O)(O)O)C(=O)O (stereo not drawn)
GI50 (HCT-116): > 100 µM (inactive)
GI50 (A498): > 100 µM (inactive)
GI50 (NCI-H226): > 100 µM (inactive)
GI50 (DMS-114): > 100 µM (inactive)
GI50 (A549): > 10 µM (inactive)
GI50 (ACHN): > 100 µM (inactive)
GI50 (UO-31): > 100 µM (inactive)
GI50 (HOP-62): > 100 µM (inactive)
GI50 (KM-20L2): > 100 µM (inactive)
GI50 (SNB-78): > 100 µM (inactive)
GI50 (SF-295): > 100 µM (inactive)
GI50 (SNB-19): > 100 µM (inactive)
GI50 (RXF 393): > 100 µM (inactive)
GI50 (SR): > 100 µM (inactive)
GI50 (OVCAR-5): > 100 µM (inactive)
GI50 (UACC-62): > 100 µM (inactive)
GI50 (DMS-273): > 100 µM (inactive)
GI50 (HOP-92): > 100 µM (inactive)
GI50 (NCI-H522): > 100 µM (inactive)
GI50 (HL-60): > 100 µM (inactive)
GI50 (CCRF-CEM): > 100 µM (inactive)
GI50 (KM12): > 100 µM (inactive)
GI50 (NCI-H23): > 100 µM (inactive)
GI50 (NCI-H460): > 100 µM (inactive)
GI50 (SK-OV-3): > 100 µM (inactive)
GI50 (OVCAR-8): > 100 µM (inactive)
GI50 (SF-268): > 100 µM (inactive)
GI50 (UACC-257): > 100 µM (inactive)
GI50 (M19-MEL): > 100 µM (inactive)
GI50 (SK-MEL-28): > 100 µM (inactive)
GI50 (EKVX): > 100 µM (inactive)
GI50 (IGROV-1): > 100 µM (inactive)
GI50 (U-251): > 100 µM (inactive)
GI50 (M14): > 100 µM (inactive)
GI50 (MOLT-4): > 100 µM (inactive)
GI50 (HT-29): > 100 µM (inactive)
GI50 (TK-10): > 100 µM (inactive)

Oc1cccc2cccnc12 [OXYQUINOLINE]
GI50 (DLD-1): 1.47 µM (inactive)
GI50 (KM-20L2): 1.38 µM (inactive)
GI50 (SR): 0.453 µM (active)
GI50 (DMS-273): 2.53 µM (inactive)
GI50 (LXFL 529): 0.605 µM (active)
GI50 (HL-60): 251 nM (active) and 457 nM (active)
GI50 (BT-549): > 80.2 µM (inactive)
GI50 (HOP-18): 14.8 µM (inactive)
GI50 (IGROV-1): 3.14 µM (inactive) and 4.5 µM (inactive)
GI50 (SK-MEL-5): 8.69 µM (inactive) and 4.93 µM (inactive)
GI50 (RPMI-8226): 0.578 µM (active)

Nc1c(C(=O)N/N=C/c2ccccc2)sc(=S)n1-c1ccccc1
GI50 (DLD-1): > 100 µM (inactive)
GI50 (HCT-116): > 100 µM (inactive)
GI50 (NCI-H226): > 100 µM (inactive)
GI50 (A549): > 100 µM (inactive)
GI50 (ACHN): > 100 µM (inactive)
GI50 (SF-539): 70 µM (inactive)
GI50 (UO-31): > 100 µM (inactive)
GI50 (HOP-62): > 100 µM (inactive)
GI50 (SF-295): > 100 µM (inactive)
GI50 (SNB-19): > 100 µM (inactive)
GI50 (OVCAR-3): > 100 µM (inactive)
GI50 (SR): > 100 µM (inactive)
GI50 (UACC-62): > 100 µM (inactive)
GI50 (LXFL 529): > 100 µM (inactive)
GI50 (HOP-92): > 100 µM (inactive)
GI50 (NCI-H522): > 100 µM (inactive)
GI50 (SNB-75): 8.71 µM (inactive)
GI50 (HL-60): > 100 µM (inactive)
GI50 (CCRF-CEM): > 100 µM (inactive)
GI50 (KM12): > 100 µM (inactive)
GI50 (NCI-H23): > 100 µM (inactive)
GI50 (NCI-H460): > 100 µM (inactive)
GI50 (HOP-18): > 100 µM (inactive)
GI50 (SK-OV-3): > 100 µM (inactive)
GI50 (OVCAR-8): > 100 µM (inactive)
GI50 (SF-268): > 100 µM (inactive)
GI50 (UACC-257): > 100 µM (inactive)
GI50 (HCC 2998): > 100 µM (inactive)
GI50 (M19-MEL): > 100 µM (inactive)
GI50 (K562): 3.38 µM (inactive)
GI50 (SK-MEL-28): > 100 µM (inactive)
GI50 (COLO 205): > 100 µM (inactive)
GI50 (IGROV-1): > 100 µM (inactive)
GI50 (U-251): > 100 µM (inactive)
GI50 (SK-MEL-5): > 100 µM (inactive)
GI50 (SW-620): > 100 µM (inactive)
GI50 (RPMI-8226): > 100 µM (inactive)
GI50 (MOLT-4): > 100 µM (inactive)
GI50 (HT-29): > 100 µM (inactive)
GI50 (TK-10): > 100 µM (inactive)

CCN(CC)CC1CCCCN1CC(=O)N1c2cc(Cl)ccc2NC(=O)CC1C (stereo not drawn)
GI50 (DLD-1): > 100 µM (inactive)
GI50 (HCT-116): > 100 µM (inactive)
GI50 (A498): > 100 µM (inactive)
GI50 (SN12C): > 100 µM (inactive)
GI50 (NCI-H226): > 100 µM (inactive)
GI50 (HCT-15): > 10 µM
GI50 (DMS-114): > 100 µM (inactive)
GI50 (A549): > 100 µM (inactive)
GI50 (ACHN): > 100 µM (inactive)
GI50 (SF-539): > 100 µM (inactive)
GI50 (UO-31): > 100 µM (inactive)
GI50 (HOP-62): > 100 µM (inactive)
GI50 (XF498): > 100 µM (inactive)
GI50 (KM-20L2): > 100 µM (inactive)
GI50 (SNB-78): > 100 µM (inactive)
GI50 (Malme-3M): > 100 µM (inactive)
GI50 (SNB-19): > 100 µM (inactive)
GI50 (OVCAR-3): > 100 µM (inactive)
GI50 (SR): > 100 µM (inactive)
GI50 (OVCAR-5): > 100 µM (inactive)
GI50 (UACC-62): 55.3 µM (inactive)
GI50 (786-0): > 100 µM (inactive)
GI50 (DMS-273): > 100 µM (inactive)
GI50 (OVCAR-4): > 100 µM (inactive)
GI50 (LXFL 529): > 100 µM (inactive)
GI50 (HOP-92): > 100 µM (inactive)
GI50 (NCI-H522): > 100 µM (inactive)
GI50 (SNB-75): > 100 µM (inactive)
GI50 (HL-60): > 100 µM (inactive)
GI50 (CCRF-CEM): > 100 µM (inactive)
GI50 (SK-MEL-2): > 100 µM (inactive)
GI50 (KM12): > 100 µM (inactive)
GI50 (NCI-H23): > 100 µM (inactive)
GI50 (LOX IMVI): > 100 µM (inactive)
GI50 (NCI-H460): > 100 µM (inactive)
GI50 (SK-OV-3): 0.0849 µM (active)
GI50 (OVCAR-8): > 100 µM (inactive)
GI50 (SF-268): > 100 µM (inactive)
GI50 (UACC-257): > 100 µM (inactive)
GI50 (HCC 2998): > 100 µM (inactive)
GI50 (M19-MEL): > 100 µM (inactive)
GI50 (K562): > 100 µM (inactive)
GI50 (SK-MEL-28): > 100 µM (inactive)
GI50 (COLO 205): > 100 µM (inactive)
GI50 (EKVX): > 100 µM (inactive)
GI50 (U-251): > 100 µM (inactive)
GI50 (CAKI-1): > 100 µM (inactive)
GI50 (SK-MEL-5): > 100 µM (inactive)
GI50 (SW-620): > 100 µM (inactive)
GI50 (RPMI-8226): > 100 µM (inactive)
GI50 (M14): > 100 µM (inactive)
GI50 (MOLT-4): > 100 µM (inactive)
GI50 (TK-10): > 100 µM (inactive)

CCOC(=O)CC(NC(=O)c1nc[nH]c1/N=N/N(C)C)C(=O)OCC (stereo not drawn)
GI50 (DLD-1): > 100 µM (inactive)
GI50 (HCT-116): > 100 µM (inactive)
GI50 (A498): > 100 µM (inactive)
GI50 (SN12C): > 100 µM (inactive)
GI50 (NCI-H226): > 100 µM (inactive)
GI50 (HCT-15): > 100 µM
GI50 (DMS-114): > 100 µM (inactive)
GI50 (A549): > 100 µM (inactive)
GI50 (ACHN): > 100 µM (inactive)
GI50 (SF-539): > 100 µM (inactive)
GI50 (UO-31): > 100 µM (inactive)
GI50 (HOP-62): > 100 µM (inactive)
GI50 (Malme-3M): > 100 µM (inactive)
GI50 (SF-295): > 100 µM (inactive)
GI50 (SNB-19): > 100 µM (inactive)
GI50 (OVCAR-3): > 100 µM (inactive)
GI50 (SR): > 100 µM (inactive)
GI50 (OVCAR-5): > 100 µM (inactive)
GI50 (UACC-62): > 100 µM (inactive)
GI50 (786-0): > 100 µM (inactive)
GI50 (DMS-273): > 100 µM (inactive)
GI50 (OVCAR-4): > 100 µM (inactive)
GI50 (LXFL 529): > 100 µM (inactive)
GI50 (NCI-H522): > 100 µM (inactive)
GI50 (SNB-75): > 100 µM (inactive)
GI50 (HL-60): > 100 µM (inactive)
GI50 (CCRF-CEM): > 100 µM (inactive)
GI50 (SK-MEL-2): > 100 µM (inactive)
GI50 (KM12): > 100 µM (inactive)
GI50 (NCI-H23): > 100 µM (inactive)
GI50 (LOX IMVI): > 100 µM (inactive)
GI50 (NCI-H460): > 100 µM (inactive)
GI50 (SK-OV-3): > 100 µM (inactive)
GI50 (OVCAR-8): > 100 µM (inactive)
GI50 (SF-268): > 100 µM (inactive)
GI50 (UACC-257): > 100 µM (inactive)
GI50 (HCC 2998): > 100 µM (inactive)
GI50 (M19-MEL): > 100 µM (inactive)
GI50 (K562): > 100 µM (inactive)
GI50 (SK-MEL-28): > 100 µM (inactive)
GI50 (COLO 205): > 100 µM (inactive)
GI50 (EKVX): > 100 µM (inactive)
GI50 (IGROV-1): > 100 µM (inactive)
GI50 (U-251): > 100 µM (inactive)
GI50 (CAKI-1): > 100 µM (inactive)
GI50 (SK-MEL-5): > 100 µM (inactive)
GI50 (SW-620): > 100 µM (inactive)
GI50 (RPMI-8226): > 100 µM (inactive)
GI50 (M14): > 100 µM (inactive)
GI50 (MOLT-4): > 100 µM (inactive)
GI50 (HT-29): > 100 µM (inactive)
GI50 (TK-10): > 100 µM (inactive)
